Source: patent US20190117624A1, “THERAPEUTIC AGENT FOR INFLAMMATORY BOWEL DISEASES” (DAIICHI SANKYO COMPANY, LIMITED, priority 2016, published 2019)

System: dextran sodium sulfate-induced ulcerative colitis in rats
Assay: Drug efficacy on dextran sodium sulfate-induced ulcerative colitis in rats (erosion area of the large intestinal mucosa)
Format: in vivo, rat
Conditions: for erosion area / inhibition rate (erosion area): 14 days; for erosion area: DSS colitis rats, mean±standard error, control 330.3±15.4; for inhibition rate (erosion area): vs control group
Procedure: The test of drug efficacy of a TAFIa inhibitor on dextran sodium sulfate-induced ulcerative colitis in rats will be described below. This test was conducted by commissioning to NISSEI BILIS Co., Ltd.
A TAFIa inhibitor, (2S)-5-amino-2-{[1-(trans-4-methylcyclohexyl)-1H-imidazol-4-yl]methyl}valeric acid p-toluenesulfonate anhydride (hereinafter referred to as “compound A”) was dissolved in a 0.5% aqueous sodium carboxymethylcellulose solution (hereinafter referred to as “CMC-Na”) to prepare a dosing solution for oral administration of 0.6, 2, 6 and 20 mg/mL. The dosage was determined by conversion into a free form with a conversion factor of 0.6301. The chemical structure of compound A is as follows: […]
7-Week old male LEW/SsN Slc rats (Japan SLC, Inc.) were allowed to drink 3% dextran sodium sulfate (hereinafter referred to as “DSS”) freely to create ulcerative colitis models. Individuals meeting selection criteria for model animals shown in 1-3 below were selected followed by switching to free drinking of 1% aqueous DSS solution to maintain the ulcerative colitis models.
Thereafter, animals that met the selection criteria were selected.
The tests were conducted in two separate groups (the first half: 5 animals/group; the second half: 5 animals/group). The untreated individuals and the individuals meeting the above selection criteria were selected as adopted animals, and grouped into groups of 5 animals/group with the body weight as a main parameter and the hemoglobin concentration as a secondary parameter, according to stratified randomized assignment so as not to cause a difference in the average value among the groups (the total of two tests: 10 animals/group).
Administration route: Oral administration
Administration volume: 5 mL/kg
[…] Administration was conducted by masking the test groups (that is, individual identification numbers were recorded in the animal cards, and administration was conducted in a blinded manner). Note that the administration on the selection day (the first day of administration) was conducted only once in the afternoon.
Each of animals was fasted from the end of the final administration. On the day of dissection, approximately 3 mL of blood was collected from the abdominal aorta under anesthesia with pentobarbital sodium (30 mg/kg, i.p.) by using a polypropylene disposable syringe and an injection needle. Immediately after blood collection, the large intestine (the colon and the rectum) was isolated and immersed in physiological saline kept warm at approximately 37° C., and the length of the large intestine was measured in a relaxed state. Thereafter, a 10% neutral buffered formalin solution was infused into the large intestine, and the large intestine was immersed in physiological saline with the lumen expanded and temporarily fixed for 1 hour or more. After temporary fixation, the large intestine was dissected along the mesentery attachment site, immersed in a stretched state in a 10% neutral buffered formalin solution, and fixed for 1 week or more. The fixed large intestine specimen was washed with running water for approximately 5 minutes, further with distilled water three times, and then immersed in a 3% aqueous acetic acid solution for approximately 5 minutes as a pretreatment.
The large intestine specimen stained with a 1% Alcian blue solution was photographed. The photograph was captured on an image analysis device (general-purpose image processor WinROOF, Version 5.7, MITANI CORPORATION), and the area of deep blue part was measured. This measurement value was used as the erosion area.
The erosion area was expressed as mean±standard error. A significant difference test between the control group and each group was conducted by a homoscedasticity test (F-test) followed by Student's t test in the case of homoscedasticity and by Aspin-Welch's t test in the case of heteroscedasticity (significance level: 5%).

| Compound | erosion area (300 mg/kg orally once a day) [mm^2] | inhibition rate (erosion area) (300 mg/kg orally once a day) [%] | erosion area compared to the control group (significance) (300 mg/kg orally once a day, Student's t test P<0.05) | erosion area compared to the control group (significance) (3 mg/kg orally twice a day) | erosion area (3 mg/kg orally twice a day) [mm^2] | inhibition rate (erosion area) (3 mg/kg orally twice a day) [%] | erosion area (10 mg/kg orally twice a day) [mm^2] | inhibition rate (erosion area) (10 mg/kg orally twice a day) [%] | erosion area compared to the control group (significance) (10 mg/kg orally twice a day, Student's t test P<0.05) | erosion area (30 mg/kg orally once a day) [mm^2] | inhibition rate (erosion area) (30 mg/kg orally once a day) [%] | erosion area compared to the control group (significance) (30 mg/kg orally once a day, Student's t test P<0.01) | erosion area (30 mg/kg orally twice a day) [mm^2] | inhibition rate (erosion area) (30 mg/kg orally twice a day) [%] | erosion area compared to the control group (significance) (30 mg/kg orally twice a day, Student's t test P<0.01) | erosion area (100 mg/kg orally twice a day) [mm^2] | inhibition rate (erosion area) (100 mg/kg orally twice a day) [%] | erosion area compared to the control group (significance) (100 mg/kg orally twice a day, Student's t test P<0.01) | reduction effect of the erosion area (overall conclusion) (rat ulcerative colitis model) |
| --- | --- | --- | --- | --- | --- | --- | --- | --- | --- | --- | --- | --- | --- | --- | --- | --- | --- | --- | --- |
| O=C(O)c1cc(/N=N/c2ccc(S(=O)(=O)Nc3ccccn3)cc2)ccc1O [SASP, Salazosulfapyridine, reference compound] | 261.6±22.7 | 20.8 | significant reduction in the erosion area |  |  |  |  |  |  |  |  |  |  |  |  |  |  |  |  |
| C[C@H]1CC[C@H](n2cnc(C[C@H](CCCN)C(=O)O)c2)CC1.Cc1ccc(S(=O)(=O)O)cc1 [compound A, (2S)-5-amino-2-{[1-(trans-4-methylcyclohexyl)-1H-imidazol-4-yl]methyl}valeric acid p-toluenesulfonate anhydride] |  |  |  | No significant difference | 291.8±13.1 | 11.7 | 281.6±11.1 | 14.7 | significant reduction in the erosion area | 264.0±7.9 | 20.1 | significant reduction in the erosion area | 262.89±13.9 | 20.4 | significant reduction in the erosion area | 261.9±12.7 | 20.7 | significant reduction in the erosion area | significant reduction effect of the erosion area |
